{
  "source": "patent EP0116255A2",
  "about": "“Treatment of migraine with N-alkyl-piperidinyl benzoate derivatives” (MERRELL DOW FRANCE ET CIE, priority 1982, dated 1984)",
  "key": {"[1]": {"tested_on": "von Bezold-Jarisch reflex evoked by 5-HT", "assay": "Antagonism of the von Bezold-Jarisch reflex evoked by 5-HT in the anaesthetised rat", "assay_type": "in vivo", "conditions": "iv, anaesthetised male Sprague-Dawley rat, antagonist intravenously; for ED50: dose inhibiting the response to 5-HT (2µg/kg i.v.) by 50%", "source_text": "The activity of the compounds of Formula I against 5-HT can be assessed in vivo by measurement of the effect of the compound on the Von Bezold-Jarisch Reflex induced by 5-HT injected intravenously into the rat (see A.S. Paintal, Physiol. Rev. 53 (159-227), 1973). The transient cardiac slowing results arises from an increased efferent vagus activity arising from stimulation by 5-HT of sensory afferent fibres in and around the heart.\nAntagonism of the von Bezold-Jarisch reflex evoked by 5-HT in the anaesthetised rat was measured for N-methyl-4-piperidinyl-3',5'-dimethylbenzoate (Compound A) and N-methyl-3-piperidinyl 3',5'-dimethylbenzoate (Compound B), using the following method: • Male Sprague-Dawley rats weighing 250-300 g are anaesthetized with urethane, 1.25 g/kg injected intraperitoneally and set up for recording blood pressure and heart rate as described in Fozard J.R et al., J. Cardiovasc. Pharmacol. 2, 229-245 (1980). A submaximal dose of 5-HT (2µg/kg) is given repeatedly into the cannulated jugular vein and changes in heart rate quantified. Antagonists are given intravenously and the doses required to just inhibit the response to 5-HT (threshold dose) or to inhibit the response to 5-HT by 50% (ED50) are determined."}, "[2]": {"target": "T1, 5-HT M-receptor (Oryctolagus cuniculus, UniProt A0A5F9C9J3)", "T1 sequence (A0A5F9C9J3 35-494)": "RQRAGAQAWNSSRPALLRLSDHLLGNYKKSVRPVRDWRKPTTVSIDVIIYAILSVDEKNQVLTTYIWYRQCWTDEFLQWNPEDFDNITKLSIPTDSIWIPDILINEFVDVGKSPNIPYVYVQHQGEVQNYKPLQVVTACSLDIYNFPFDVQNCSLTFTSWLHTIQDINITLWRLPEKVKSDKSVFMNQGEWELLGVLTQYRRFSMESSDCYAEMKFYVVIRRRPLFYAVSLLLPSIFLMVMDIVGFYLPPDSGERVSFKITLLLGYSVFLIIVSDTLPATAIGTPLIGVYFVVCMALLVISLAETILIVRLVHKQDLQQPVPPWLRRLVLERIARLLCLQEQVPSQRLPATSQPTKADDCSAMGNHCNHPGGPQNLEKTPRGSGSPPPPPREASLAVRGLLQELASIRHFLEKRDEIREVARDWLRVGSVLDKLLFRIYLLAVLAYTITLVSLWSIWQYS", "assay": "pA2 against 5-HT in the isolated rabbit heart", "conditions": "negative logarithm of molar antagonist concentration reducing effect of twice the ED50 of 5-HT to that of the ED50", "description": "The activity of the compounds against 5-HT can be assessed by determining their pA2 values in the isolated rabbit heart as described by J.R. Fozard et al Europ. J. Pharmacol. 59, 195-210 (1979). In the method described the molar concentration of antagonist which reduces the effects of twice the ED50 of 5-HT to that of the ED50 in the absence of antagonist is determined. The pA2 value is the negative logarithm of said molar concentrations."}, "[3]": {"target": "T1, 5-HT M-receptor", "conditions": "5-HT M-receptor antagonism; values reported in the literature (J.R. Fozard et al., Eur. J. Pharmacol.); cited from earlier work"}},
  "note": "Where two headings read alike, the source gives them in different places.",
  "data": [
    {"compound": "Cc1cc(C)cc(C(=O)OC2CCN(C)CC2)c1", "note": "[Compound A, N-Methyl-4-piperidinyl-3',5'-dimethylbenzoate]", "values": [
      {"measurement": "ED50", "setting": "[1]", "value": "0.136 ± 0.022", "unit": "mg/kg"},
      {"measurement": "pA2 5-HT", "setting": "[2]", "value": 8.1}
    ]},
    {"compound": "Cc1cc(C)cc(C(=O)OC2CCCN(C)C2)c1", "note": "(stereo not drawn) [Compound B, N-Methyl-3-piperidinyl-3',5'-dimethylbenzoate]", "values": [
      {"measurement": "ED50", "setting": "[1]", "value": "0.51 ± 0.116", "unit": "mg/kg"},
      {"measurement": "pA2 5-HT", "setting": "[2]", "value": 7.3}
    ]},
    {"compound": "CCN(CC)CCNC(=O)c1cc(Cl)c(N)cc1OC", "note": "[metoclopramide]", "values": [
      {"measurement": "ED50", "setting": "[1]", "value": "0.408 ± 0.0809", "unit": "mg/kg"},
      {"measurement": "minimal effective dose", "setting": "[1]; dose required to just inhibit the response to 5-HT (2µg/kg i.v.), read-out: THRESHOLD DOSE", "value": "0.233 ± 0.0663", "unit": "mg/kg"},
      {"measurement": "pA2 5-HT", "setting": "[3]", "value": 7.2}
    ]},
    {"compound": "COC(=O)[C@H]1[C@@H](OC(=O)c2ccccc2)C[C@@H]2CC[C@H]1N2", "note": "[nor(-)cocaine]", "values": [
      {"measurement": "pA2 5-HT", "setting": "[3]", "value": 7.7}
    ]},
    {"compound": "tropyl benzoate", "values": [
      {"measurement": "pA2 5-HT", "setting": "[3]", "value": 7.2}
    ]}
  ]
}
